Tests used:
[1] = Drug uptake in human OVCAR-3 cells by measuring perinuclear fluorescence staining at 10 uM incubated for 30 mins by Hoechst-33258 staining based confocal laser scanning microscopic analysis; format: ADME, cell-based; conditions: ovcar-3, 0.5 h
[2] = Drug uptake in human COX1-negative HCA7 cells at 10 uM incubated for 30 mins by Hoechst-33258 staining based confocal laser scanning microscopic analysis; format: ADME, cell-based; conditions: hca7, 0.5 h

Drug uptake [1]: Active | Drug uptake [2]: Not Active
Compound: O=C(O)c1ccc(-n2nc(-c3ccco3)cc2-n2cc(CNc3ccc([N+](=O)[O-])c4nonc34)nn2)cc1
